Data set [1] can be described thus: Measurement of average thickness increase of single hair fibers. Here is the method:
The fibers are then removed and allowed to equilibrate and dry overnight. • 4) The next day, the fibers are imaged and measured for a final reading. For each experiment, untreated control and product treatment controls are ran, and at least 5 fibers are measured per treatment. • 5) In order to measure increase in thickness as a function of treatment, the […]. The average thickness increase is reported in the Table above, with measurements reported in micrometers. Viscosity Test Method

Data set [2] in a line: Viscosity test method (cone and plate viscometer/rheometer). It is filed as physicochemical. The note with it: hair care composition (Example 1 formula) with 0.15% resorcinol of the given type, 1.89% Sepigel. The source says:
The viscosity of the hair care composition may be determined by a cone and plate viscometer/rheometer which measures the viscous drag resulting from the sample material contained in the gap between a rotating cone and a stationary plate. The geometry of the cone and plate may be such that the entire sample is subjected to a uniform shear rate.

As for `Oc1ccc(Cl)c(O)c1` [Resorcinol 1, 4-Chlororesorcinol], the “average thickness increase compared to Resorcinol Type 2 and Type 3 (in words)” value in data set [1] (Example 1 formula, different types of resorcinol substituted) is given as “measurable average thickness increase”.
Regarding `Oc1cccc(O)c1` [Resorcinol 3, 1,3-Dihydroxybenzene], the “Average Thickness Increase” value in data set [1] (Example 1 formula with 0.15% resorcinol of the given type, 1.89% Sepigel, fibers treated 10 minutes, dried overnight, at least 5 fibers per treatment) is reported as 3.5 μm. Also, the Viscosity in data set [2] was found to be 15958 cps.

The values above are taken from patent publication US9649271B2, “Hair thickening compositions and methods of use” (The Procter & Gamble Company, priority 2013, dated 2017).
